ChEMBL document CHEMBL1134097, “Cyclooxygenase-inhibitory and antioxidant constituents of the aerial parts of Antirhea acutata” (Bioorg Med Chem Lett, 2001)
One block for each compound: values may come before it.

Key:
[1] = Activity determined by cytochrome c reduction antioxidant assay; format: functional
[2] = Activity determined by 1,1-diphenyl-2-picrylhydrazyl (DPPH) free radical antioxidant assay; format: functional
[3] = molecular target: T1, Prostaglandin G/H synthase 1 (Homo sapiens, UniProt P23219); assay: Activity against Prostaglandin G/H synthase 1 at > 70 ug/mL; inactive
[4] = molecular target: T2, Prostaglandin G/H synthase 2 (Homo sapiens, UniProt P35354); assay: Activity against Prostaglandin G/H synthase 2 at > 70 ug/mL; inactive
T2 sequence (P35354 whole entry): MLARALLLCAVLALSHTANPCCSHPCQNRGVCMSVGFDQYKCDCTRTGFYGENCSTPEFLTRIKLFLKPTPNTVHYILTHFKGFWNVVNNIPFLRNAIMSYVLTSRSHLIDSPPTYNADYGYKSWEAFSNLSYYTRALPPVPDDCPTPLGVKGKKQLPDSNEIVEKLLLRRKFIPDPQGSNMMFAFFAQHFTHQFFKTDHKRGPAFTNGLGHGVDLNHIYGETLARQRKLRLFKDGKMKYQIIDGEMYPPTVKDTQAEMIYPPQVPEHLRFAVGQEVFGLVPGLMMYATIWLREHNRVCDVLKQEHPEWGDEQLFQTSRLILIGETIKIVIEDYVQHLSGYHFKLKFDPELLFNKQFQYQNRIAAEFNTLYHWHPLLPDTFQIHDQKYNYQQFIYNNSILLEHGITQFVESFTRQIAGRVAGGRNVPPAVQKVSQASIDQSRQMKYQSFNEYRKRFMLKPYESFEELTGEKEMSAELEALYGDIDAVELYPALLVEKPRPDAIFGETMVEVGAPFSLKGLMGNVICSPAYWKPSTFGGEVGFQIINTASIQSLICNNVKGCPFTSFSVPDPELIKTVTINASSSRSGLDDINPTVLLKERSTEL

[5] = molecular target: T1, Prostaglandin G/H synthase 1; assay: Inhibitory concentration against Prostaglandin G/H synthase 1
[6] = molecular target: T2, Prostaglandin G/H synthase 2; assay: Inhibitory concentration against Prostaglandin G/H synthase 2

T1 sequence (P23219 whole entry): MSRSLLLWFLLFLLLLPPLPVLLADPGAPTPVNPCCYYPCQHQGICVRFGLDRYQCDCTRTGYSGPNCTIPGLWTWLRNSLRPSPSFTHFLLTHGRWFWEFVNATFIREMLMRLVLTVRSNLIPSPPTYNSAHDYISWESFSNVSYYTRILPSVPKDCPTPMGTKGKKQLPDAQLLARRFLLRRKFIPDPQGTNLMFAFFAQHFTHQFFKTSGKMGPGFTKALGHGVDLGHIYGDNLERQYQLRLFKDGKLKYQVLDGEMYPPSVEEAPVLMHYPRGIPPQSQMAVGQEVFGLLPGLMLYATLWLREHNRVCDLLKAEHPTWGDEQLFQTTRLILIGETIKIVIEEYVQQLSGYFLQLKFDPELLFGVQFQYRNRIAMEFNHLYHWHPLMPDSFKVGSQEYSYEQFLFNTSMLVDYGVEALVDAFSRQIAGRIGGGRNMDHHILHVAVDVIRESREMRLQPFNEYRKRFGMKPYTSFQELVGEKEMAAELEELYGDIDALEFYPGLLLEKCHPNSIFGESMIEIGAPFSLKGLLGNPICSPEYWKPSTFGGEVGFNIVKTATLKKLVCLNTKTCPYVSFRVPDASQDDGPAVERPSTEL

IC50 [1]: 16.3 µM | IC50 [2]: 29.1 µM
SMILES: COC(=O)C[C@H](c1ccc(O)c(O)c1)c1c(O)cc(O)c2c1O[C@H](c1ccc(O)c(O)c1)[C@H](O)C2

IC50 [3]: Not Active | IC50 [4]: Not Active
SMILES: C[C@H](CC[C@H](O)C(C)(C)O)[C@H]1CC[C@@]2(C)[C@@H]3CCC4[C@@]5(CC[C@H](O)[C@@]4(C)C(=O)O)C[C@@]35CC[C@]12C (stereo partly specified)

IC50 [5]: 43.7 µM | IC50 [6]: 4.7 µM
SMILES: C=C[C@@H]1[C@@H](O)C[C@@H]2[C@]3(CC[C@]4(C)[C@@H]([C@H](C)CCC=C(C)C)CC[C@@]24C)C[C@]13CCC(=O)O
